After the bases stand the sugars from the 5' end (letter, count) and the backbone: PS all phosphorothioate, else s phosphorothioate and o phosphodiester by linkage. Methylation of C is not given here. e = 2'-O-(2-methoxyethyl) (MOE); l = locked nucleic acid (LNA); k = constrained ethyl (cEt); d = 2'-deoxy (DNA)
Columns and labels:
[1] = molecular target: APOL1; details: ASO
[2] = molecular target: SNHG14; details: ASO, Human Neuronal Cell

AGTTTTGTAAGTGCAA (sugars kkddddkekekkdddd, PS)
target mRNA inhibition ([1]; A431, 2 µM): 84%

ATATCAGATGGGTACT (sugars kkkddddkekekdddd, PS)
target mRNA inhibition ([1]; A431, 2 µM): 28%

ATCAGATGGGTACTTC (sugars k3 d4 k3 e1 d5, PS)
target mRNA inhibition ([1]; A431, 2 µM): 88%

ATCAGATGGGTACTTC (sugars k4 d9 k3, PS)
target mRNA inhibition ([1]; A431, 0.0625 µM): 53%
target mRNA inhibition ([1]; A431, 0.25 µM): 78%
target mRNA inhibition ([1]; A431, 1 µM): 89%

ATCAGATGGGTACTTC (sugars kkddddkekekddddd, PS)
target mRNA inhibition ([1]; A431, 2 µM): 66%

ATGCGGTACTGACTGA (sugars k4 d9 k3, PS)
target mRNA inhibition ([1]; A431, 0.0625 µM): 49%
target mRNA inhibition ([1]; A431, 0.25 µM): 69%
target mRNA inhibition ([1]; A431, 1 µM): 88%

ATGCTAATTTTCTGAC (sugars k2 d4 e3 k2 d5, PS)
target mRNA inhibition ([1]; A431, 2 µM): 88%

ATGCTAATTTTCTGAC (sugars kkddddkekekddddd, PS)
target mRNA inhibition ([1]; A431, 0.0156 µM): 25%
target mRNA inhibition ([1]; A431, 0.0625 µM): 59%
target mRNA inhibition ([1]; A431, 0.25 µM): 84%
target mRNA inhibition ([1]; A431, 1 µM): 93%
target mRNA inhibition ([1]; A431, 2 µM): 97%

ATGTCTCAAACTCCAC (sugars k4 d9 k3, PS)
target mRNA inhibition ([1]; A431, 0.0625 µM): 29%
target mRNA inhibition ([1]; A431, 0.25 µM): 63%
target mRNA inhibition ([1]; A431, 1 µM): 83%

ATTCAGAATTTCCACT (sugars k2 d4 e3 k2 d5, PS)
target mRNA inhibition ([1]; A431, 2 µM): 77%

ATTCAGAATTTCCACT (sugars kkdddddkekeddddd, PS)
target mRNA inhibition ([1]; A431, 2 µM): 88%

ATTCAGAATTTCCACT (sugars kkddddekekeddddd, PS)
target mRNA inhibition ([1]; A431, 2 µM): 87%

ATTCTATTAGAGGGCT (sugars k2 d4 e3 k2 d5, PS)
target mRNA inhibition ([1]; A431, 2 µM): 70%

ATTCTATTAGAGGGCT (sugars kdddddkekekddddd, PS)
target mRNA inhibition ([1]; A431, 2 µM): 45%

ATTCTATTAGAGGGCT (sugars kkddddkekekkdddd, PS)
target mRNA inhibition ([1]; A431, 2 µM): 34%

ATTCTCATGGTACAGG (sugars k2 d4 e3 k2 d5, PS)
target mRNA inhibition ([1]; A431, 0.0156 µM): 13%
target mRNA inhibition ([1]; A431, 0.0625 µM): 34%
target mRNA inhibition ([1]; A431, 0.25 µM): 72%
target mRNA inhibition ([1]; A431, 1 µM): 90%
target mRNA inhibition ([1]; A431, 2 µM): 92%

ATTCTCATGGTACAGG (sugars kdddddkekekddddd, PS)
target mRNA inhibition ([1]; A431, 2 µM): 83%

TTTATACCTTTCTTTAACCC (sugars l1 d14 l2 d1 l2, PS)
target mRNA inhibition ([2]; 7.5 µM): 63%

TTTATACCTTTCTTTAACCC (sugars l2 d1 l1 d14 l2, PS)
target mRNA inhibition ([2]; 7.5 µM): 50%

TTTATACCTTTCTTTAACCC (sugars lddldddddddddlddddll, PS)
target mRNA inhibition ([2]; 7.5 µM): 53%

TTTATCAATATCTTCTCA (sugars l3 d2 l1 d9 l3, PS)
target mRNA inhibition ([2]; 7.5 µM): 65%

TTTATCAATATCTTCTCA (sugars l4 d10 l1 d1 l2, PS)
target mRNA inhibition ([2]; 7.5 µM): 69%

TTTATCAATATCTTCTCA (sugars lllldldddddddlddll, PS)
target mRNA inhibition ([2]; 7.5 µM): 62%

TTTATCAATATCTTCTCAC (sugars l1 d12 l2 d1 l3, PS)
target mRNA inhibition ([2]; 7.5 µM): 60%

TTTATCAATATCTTCTCAC (sugars l4 d12 l3, PS)
target mRNA inhibition ([2]; 7.5 µM): 70%

TTTATCAATATCTTCTCAC (sugars lddlllddddddddlddll, PS)
target mRNA inhibition ([2]; 7.5 µM): 63%

TTTATCAATATCTTCTCAC (sugars ldlddlddddddldddlll, PS)
target mRNA inhibition ([2]; 7.5 µM): 61%

TTTATCAATATCTTCTCAC (sugars lllddldddddddllddll, PS)
target mRNA inhibition ([2]; 7.5 µM): 54%

TTTATCAATATCTTCTCACT (sugars ldddddddddddddldldll, PS)
target mRNA inhibition ([2]; 7.5 µM): 53%

TTTATCAATATCTTCTCACT (sugars lddddlddddddddddldll, PS)
target mRNA inhibition ([2]; 7.5 µM): 68%

TTTATCAATATCTTCTCACT (sugars ldldddddddddddldddll, PS)
target mRNA inhibition ([2]; 7.5 µM): 39%

TTTCCATTTATTTCCATTT (sugars l2 d2 l2 d11 l2, PS)
target mRNA inhibition ([2]; 7.5 µM): 59%

TTTCCATTTATTTCCATTT (sugars l4 d13 l2, PS)
target mRNA inhibition ([2]; 0.2 µM): 47%
target mRNA inhibition ([2]; 1 µM): 56%

TTTCCATTTATTTCCATTT (sugars lldlddddddddddlldll, PS)
target mRNA inhibition ([2]; 7.5 µM): 53%

TTTCCTCTGCTTATAAC (sugars l4 d11 l2, PS)
target mRNA inhibition ([2]; 0.2 µM): 34%
target mRNA inhibition ([2]; 1 µM): 56%

TTTCTGACTCCCTATCC (sugars l2 d13 l2, PS)
target mRNA inhibition ([2]; 0.2 µM): 25%
target mRNA inhibition ([2]; 1 µM): 14%

TTTTAACCAGAGTGGCAT (sugars l4 d11 l3, PS)
target mRNA inhibition ([2]; 7.5 µM): 56%

TTTTAACCAGAGTGGCATCC (sugars l2 d16 l2, PS)
target mRNA inhibition ([2]; 7.5 µM): 59%

TTTTATACCTTTCTTTAACC (sugars l1 d1 l2 d14 l2, PS)
target mRNA inhibition ([2]; 7.5 µM): 57%

TTTTATACCTTTCTTTAACC (sugars l1 d5 l1 d10 l3, PS)
target mRNA inhibition ([2]; 7.5 µM): 38%

TTTTATACCTTTCTTTAACC (sugars l1 d14 l1 d2 l2, PS)
target mRNA inhibition ([2]; 7.5 µM): 21%

TTTTATACCTTTCTTTAACC (sugars ldlddddddddddlldddll, PS)
target mRNA inhibition ([2]; 7.5 µM): 53%

TTTTATACCTTTCTTTAACC (sugars llddddldddddddldddll, PS)
target mRNA inhibition ([2]; 7.5 µM): 51%

TTTTATACCTTTCTTTAACC (sugars llldddddddddddldldll, PS)
target mRNA inhibition ([2]; 7.5 µM): 65%

TTTTTATACCTTTCTTTAAC (sugars ldllddddddddddlldlll, PS)
target mRNA inhibition ([2]; 7.5 µM): 57%

TTTTTTCTTACTATCTTCAA (sugars lldldddddddddddldlll, PS)
target mRNA inhibition ([2]; 7.5 µM): 51%

TTTTTTCTTACTATCTTCAA (sugars llldddlddddddddlddll, PS)
target mRNA inhibition ([2]; 7.5 µM): 58%

TTTTTTTCTTACTATCTTCA (sugars lddddddddddddldlddll, PS)
target mRNA inhibition ([2]; 7.5 µM): 55%

Source: the OligoGym collection
